Laboratory results taken from patent publication US9040749B2, “Borazine derivatives” (UNIVERSITE DE NAMUR, priority 2011, dated 2015).

Assays:
[1] = Stability at air and room temperature, NMR spectra at t=0 and t=10 months; format: physicochemical; conditions: NMR spectra at t=0 and t=10 months (FIG. 5)
[2] = Solubility in organic solvents; format: physicochemical

## Cc1cc(C)c(B2N(c3ccccc3)B(c3c(C)cc(C)cc3C)N(c3ccccc3)B(c3c(C)cc(C)cc3C)N2c2ccccc2)c(C)c1 [borazine derivative 1, N,N′,N″-triphenyl-B,B,B″-tri(2,4,6-trimethyl)phenyl borazine]
[1]
  Stability at air and room temperature: excellent stability
[2]; solvent: Chloroform
  Solubility: 54 Milligram/milliliter
[2]; solvent: Dichloromethane
  Solubility: 102 Milligram/milliliter
[2]; solvent: Ethyl acetate
  Solubility: 62 Milligram/milliliter
[2]; solvent: Toluene
  Solubility: 45 Milligram/milliliter

## CCCCCCCCCCCCc1ccc(N2B(c3c(C)cc(C)cc3C)N(c3ccc(CCCCCCCCCCCC)cc3)B(c3c(C)cc(C)cc3C)N(c3ccc(CCCCCCCCCCCC)cc3)B2c2c(C)cc(C)cc2C)cc1 [borazine derivative 2, N,N′,N″-tri(4-dodecyl)phenyl-B,B,B″-tri(2,4,6-trimethyl)phenyl borazine]
[2]; compound is an oil, toluene, ethyl acetate, dichloromethane, benzene and chloroform
  Solubility (miscibility): miscible
